The text below walks through data of ChEMBL document CHEMBL1201862, “PubChem BioAssay data set” (2004).

Among the test systems are 786-0; A498; ACHN; CCRF-CEM; EKVX; HCT-15; HT-29; MOLT-4; NCI-H226; NCI-H460; NCI-H522; OVCAR-4; SF-295; SNB-19; SR; SW-620; U-251; UACC-257; UACC-62.
Common to all, as to test: NCI-60 cell line screen, 48 h

Each structure is given as a SMILES string.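 Grown in 96-well plates, cells were treated for 48 hours with each compound at five concentrations. Insufficient inhibition: endpoint recorded as highest concentration tested. Abbreviation: GI50, concentration required for 50% inhibition of growth.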 Calls of active or inactive are those of the source. Rule as the data show it: active = GI50 up to about 1.1 µM and inactive = higher. Where only a bound is given, the exact number is not on record here.

As for `CC(C)(CN1CCCCC1)C(/C=C/c1ccc(Cl)cc1)=N\NC(=O)N/N=C(/C=C/c1ccc(Cl)cc1)C(C)(C)CN1CCCCC1`, the GI50 in the assay on 786-0 is 2.76 µM (inactive); with A498, 7.69 µM (inactive); with ACHN, 3.82 µM (inactive); in the assay with CCRF-CEM it was 2.64 µM (inactive); with EKVX, 5.4 µM (inactive); with HCT-15, 2.47 µM. Moreover, the GI50 is 3.58 µM (inactive) with HT-29; 3.11 µM (inactive) in the assay on MOLT-4; 4.58 µM (inactive) in the assay with NCI-H226; 3.21 µM (inactive) with NCI-H460; 2.41 µM (inactive) in the assay on NCI-H522; 2.86 µM (inactive) in the assay with OVCAR-4. The GI50 was 10 µM (inactive) in the assay with SF-295; 3.4 µM (inactive) in the assay on SNB-19; 2.7 µM (inactive) in the assay with SR; 2.72 µM (inactive) in the assay on SW-620; 3.37 µM (inactive) in the assay with U-251; 5.05 µM (inactive) in the assay on UACC-257. Further, the GI50 in the assay with UACC-62 is 3.53 µM (inactive).

As to `C[Si](C)(C)C#CCO[Si](C)(C)C`, the GI50 is 32.7 µM (inactive) in the assay on 786-0; > 100 µM (inactive) in the assay on A498; > 100 µM (inactive) in the assay on ACHN; 5.69 µM (inactive) with CCRF-CEM; 97.9 µM (inactive) in the assay on EKVX; over 79.8 µM in the assay with HCT-15. The GI50 is 32.9 µM (inactive) in the assay on HT-29; 22.3 µM (inactive) with MOLT-4; > 100 µM (inactive) in the assay on NCI-H226; > 100 µM (inactive) in the assay on NCI-H460; 15.9 µM (inactive) in the assay with NCI-H522; > 100 µM (inactive) with OVCAR-4. Besides, the GI50 is > 100 µM (inactive) in the assay with SF-295; > 100 µM (inactive) in the assay on SNB-19; 34.1 µM (inactive) in the assay on SR; 37.8 µM (inactive) with SW-620; > 100 µM (inactive) in the assay on U-251; > 100 µM (inactive) with UACC-257. Besides, in the assay with UACC-62, the GI50 is 56.5 µM (inactive).

Consider `COc1ccc2cc(-c3nc(N)nc(N4N=C(C)CC4(C)C)n3)c(=N)oc2c1`, for which the GI50 is 17.9 µM (inactive) with 786-0; 32.3 µM (inactive) in the assay on A498; 16.3 µM (inactive) with ACHN; 16.1 µM (inactive) in the assay on CCRF-CEM; 26.2 µM (inactive) in the assay on EKVX; 14.8 µM in the assay with HCT-15. Also, the GI50 in the assay on HT-29 was 17.6 µM (inactive); in the assay with MOLT-4, 11.7 µM (inactive); in the assay on NCI-H226, 15.3 µM (inactive); in the assay on NCI-H460, 17.4 µM (inactive); with NCI-H522, 13.5 µM (inactive); in the assay with OVCAR-4, 18 µM (inactive). For the same compound, the GI50 in the assay on SF-295 is 18.3 µM (inactive); in the assay on SNB-19, 19.3 µM (inactive); in the assay with SR, 13.9 µM (inactive); in the assay on U-251 it was 18.8 µM (inactive); in the assay with UACC-257, 28.9 µM (inactive); with UACC-62, 17.6 µM (inactive).

Consider `CC1(C)O[C@@H]2COC(=O)[C@@H]2O1`, for which the GI50 is > 100 µM (inactive) in the assay with 786-0; > 100 µM (inactive) with A498; > 100 µM (inactive) in the assay with ACHN; > 100 µM (inactive) with CCRF-CEM; > 100 µM (inactive) with EKVX; over 100 µM in the assay on HCT-15. The GI50 in the assay with HT-29, with MOLT-4, with NCI-H226, in the assay on NCI-H460, in the assay on NCI-H522 and in the assay on OVCAR-4 was > 100 µM (inactive) each time. Besides, the GI50 in the assay with SF-295, in the assay with SNB-19, with SR, in the assay on SW-620, in the assay with U-251 and with UACC-257 was > 100 µM (inactive) in each case. Besides, the GI50 in the assay on UACC-62 was > 100 µM (inactive).
